Experimental findings from patent US20240085425A1, “BIOMARKER AND APPLICATION THEREOF” (ADLAI NORTYE BIOPHARMA CO., LTD., priority 2022, published 2024) are described below.

What all share (assay): Tumor cell proliferation inhibition (Promega cell viability, 72 h)
Format in all cases: cell-based

One assay concerns Colo205. Conditions: Homo sapiens, COLO 205, Colo205 cells, read-out: Anti-proliferation IC50. How it is done: (§1) The cell lines used in the experiment are various tumor cells, including DU4475, Colo205, HepG2, PLC/PRF/5, BT-20, LS174T, NCI-H929, HCT116, SW620, SK-CO-1, SW480, DLD1, HT-29, SW900, SW1417, HuH7, H2009, PANC-1, SW48, Duadi, H358, HCT15, 22Rv1, Hela, RKO, Raji, Jurkat, NCI-H716, MDA-MB-231, NCI-H157 and THP1, and the inhibitory effect of the compound of the present disclosure on the proliferation of these tumor cells is determined, in order to screen out sensitive cell types of the compound of the present disclosure.
(§2) DU4475, Colo205, HepG2, PLC/PRF/5, BT-20, LS174T, NCI-H929, HCT116, SW620, SK-CO-1, SW480, DLD1, HT-29, SW900, SW1417, HuH7, H2009, PANC-1, SW48, Duadi, H358, HCT15, 22Rv1, Hela, RKO, Raji, Jurkat, NCI-H716, MDA-MB-231, NCI-H157 and THP1 cell lines cultured in each medium were treated during the logarithmic growth phase, and the cells were collected and prepared into a uniform cell suspension of known concentration, and then added to the 96-well cell culture plate to make each well contain 1000 cells. Put it into a 5% CO2 incubator and incubate at 37° C. for 20-24 h. The next day, the fully dissolved 3-fold gradient diluted compound was added to each cell culture well, so that the final maximum concentration in the cell culture well was 20 μM, and the culture was continued for 72 hours. In this test, Promega's cell viability detection test is used for detection. The more the cells proliferate, the stronger the final signal intensity will be. The detection instrument is SpectraMax, full wavelength mode. The wells with only DMSO added were used as positive control wells, and the wells without cells inoculated were used as negative control wells. The IC50 value of each compound for different cell proliferation inhibition was calculated to evaluate the inhibitory effect of the compound on different tumor cells.

A further assay has as its system LS174T. Conditions: Homo sapiens, LS174T cells, read-out: Anti-proliferation IC50. How it is done: as §1, §2
The test system of another assay is H358. As to conditions: Homo sapiens, NCI-H358, H358 cells, read-out: Anti-proliferation IC50. As for the experimental part:
as §1, §2

The test system of a further assay is BT-20. As to conditions: Homo sapiens, BT-20 cells, read-out: Anti-proliferation IC50. As for the experimental part:
as §1, §2

The test system of another assay is HepG2. Conditions: Homo sapiens, HepG2 cells, read-out: Anti-proliferation IC50. How it is done:
as §1, §2

The test system of a further assay is HuH7. As to conditions: Homo sapiens, Huh-7, HuH7 cells, read-out: Anti-proliferation IC50. As for the experimental part:
as §1, §2

The test system of a further assay is Jurkat. Conditions: Homo sapiens, Jurkat cells, read-out: Anti-proliferation IC50. As for the experimental part: as §1, §2
The next assay deals with PLC/PRF/5. Conditions: Homo sapiens, PLC/PRF/5 cells, read-out: Anti-proliferation IC50. As for the experimental part:
as §1, §2

The next assay relates to Raji. As to conditions: Homo sapiens, Raji cells, read-out: Anti-proliferation IC50. As for the experimental part: as §1, §2
In the next assay the test system is SW620. As to conditions: Homo sapiens, SW-620, SW620 cells, read-out: Anti-proliferation IC50. How it is done:
as §1, §2

For the next assay, the system named is PANC-1. As to conditions: Homo sapiens, PANC-1 cells, read-out: Anti-proliferation IC50. As for the experimental part: as §1, §2
The subject of the next assay is THP1. Conditions: Homo sapiens, THP-1, THP1 cells, read-out: Anti-proliferation IC50. How it is done: as §1, §2
Another assay concerns NCI-H929. Conditions: Homo sapiens, NCI-H929 cells, read-out: Anti-proliferation IC50. As for the experimental part: as §1, §2
For another assay, the system named is HT-29. Conditions: Homo sapiens, HT-29 cells, read-out: Anti-proliferation IC50. As for the experimental part: as §1, §2
The next assay has as its system Duadi. Conditions: Duadi cells, read-out: Anti-proliferation IC50. As for the experimental part:
as §1, §2

In the next assay the test system is NCI-H716. As to conditions: Homo sapiens, NCI-H716 cells, read-out: Anti-proliferation IC50. How it is done:
as §1, §2

The test system of the next assay is H2009. Conditions: Homo sapiens, NCI-H2009, H2009 cells, read-out: Anti-proliferation IC50. As for the experimental part:
as §1, §2

The test system of a further assay is HCT116. As to conditions: Homo sapiens, HCT-116, HCT116 cells, read-out: Anti-proliferation IC50. How it is done:
as §1, §2

The next assay deals with SK-CO-1. As to conditions: Homo sapiens, SK-CO-1 cells, read-out: Anti-proliferation IC50. As for the experimental part: as §1, §2
Another assay relates to MDA-MB-231. As to conditions: Homo sapiens, MDA-MB-231 cells, read-out: Anti-proliferation IC50. As for the experimental part: as §1, §2

Bounds are passed on as bounds.

Regarding `[2H]C([2H])([2H])N1c2nc(NCc3ccc(Oc4cnc(C(F)(F)F)nc4)nc3)nc3c2N(CCC3)C(=O)[C@]1(C)CO` [AN10250399], the IC50 in the assay on Colo205 was 43 nM; with LS174T, 102 nM; in the assay with H358, > 10000 nM; in the assay with BT-20 it was 135 nM; in the assay on HepG2 it was 128 nM; in the assay on HuH7 it was 106 nM. Also, the IC50 in the assay with Jurkat was > 10000 nM; in the assay on PLC/PRF/5, 62.6 nM; in the assay with Raji it was > 10000 nM; in the assay with SW620 it was 100 nM; in the assay with PANC-1, 140 nM; in the assay on THP1, > 10000 nM. In addition, the IC50 was 396 nM in the assay with NCI-H929; 131 nM in the assay with HT-29; > 10000 nM in the assay on Duadi; > 10000 nM in the assay with NCI-H716; 214 nM in the assay on H2009; 240 nM with HCT116. For the same compound, the IC50 with SK-CO-1 was 341 nM; with MDA-MB-231, > 10000 nM.

With `Cc1nc(C(F)(F)F)ncc1Oc1ccc(CNc2nc(C)c3c(n2)N(C)[C@@H](C)C(=O)N3)cn1` [AN10250484], the IC50 in the assay with Colo205 was 9 nM; in the assay with LS174T it was 26.3 nM; with H358, > 10000 nM; in the assay on BT-20, 22 nM; with HepG2 it was 11 nM; with HuH7, 61.3 nM. The IC50 in the assay with Jurkat is > 10000 nM; in the assay on PLC/PRF/5, 18 nM; in the assay with Raji it was > 10000 nM; in the assay on SW620 it was 284 nM; in the assay with PANC-1, 47.5 nM; in the assay with THP1 it was > 10000 nM. Further, the IC50 in the assay with NCI-H929 was 129 nM; in the assay on HT-29, 352 nM; in the assay with Duadi it was > 10000 nM; with NCI-H716, > 10000 nM; with H2009, 91.7 nM; in the assay with HCT116, 142 nM. The IC50 in the assay with SK-CO-1 is 285 nM; in the assay with MDA-MB-231, > 10000 nM.
